{"source": "patent US12350259B2", "about": "“Methods of treating migraine” (Allergan Pharmaceuticals International Limited, priority 2021, dated 2025)", "key": {"[1]": {"test": "Atogepant-rifampin drug interaction study: atogepant plasma PK", "type": "in vivo, human", "settings": "for Tmax: read-out: Tmax (median); for Vd/F: read-out: Vz/F", "procedure": "The study consisted of a Screening Visit, two study periods, an end-of-treatment (EOT) visit, and a follow-up visit. […] [table] […] Relative to the time that atogepant was administered, blood samples for atogepant plasma PK were to be collected at the following times: • Days 1 and 12: 0 hour (predose) and at 0.5, 1, 1.5, 2, 3, 4, 6, 8, 12, 16, 24, 36, and 48 hours post dose. • Day 7: 0 hour (predose) and at 0.5, 1, 1.5, 2, 3, 4, 6, 8, 12, 16, and 24 hours postdose"}, "[2]": {"molecular_target": "MATE 1 (Homo sapiens, UniProt Q96FL8)", "sequence (Q96FL8 whole entry)": "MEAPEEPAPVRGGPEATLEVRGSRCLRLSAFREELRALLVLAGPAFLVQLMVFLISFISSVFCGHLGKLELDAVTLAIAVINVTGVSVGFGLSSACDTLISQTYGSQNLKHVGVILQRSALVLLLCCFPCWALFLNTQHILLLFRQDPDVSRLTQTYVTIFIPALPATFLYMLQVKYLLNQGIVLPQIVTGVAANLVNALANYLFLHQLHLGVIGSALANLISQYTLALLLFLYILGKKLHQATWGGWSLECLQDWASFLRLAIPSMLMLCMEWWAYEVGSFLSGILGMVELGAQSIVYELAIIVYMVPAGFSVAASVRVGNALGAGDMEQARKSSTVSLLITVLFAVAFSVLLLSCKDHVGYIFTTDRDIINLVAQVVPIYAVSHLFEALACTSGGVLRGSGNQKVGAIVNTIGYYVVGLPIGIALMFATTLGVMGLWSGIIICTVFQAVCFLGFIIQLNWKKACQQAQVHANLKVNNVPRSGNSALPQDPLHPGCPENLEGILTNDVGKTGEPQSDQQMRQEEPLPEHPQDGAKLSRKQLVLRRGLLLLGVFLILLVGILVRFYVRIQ", "test": "Transporter inhibition", "type": "in vitro ADME"}, "[3]": {"molecular_target": "OATP1B1 (Homo sapiens, UniProt Q9Y6L6)", "sequence (Q9Y6L6 whole entry)": "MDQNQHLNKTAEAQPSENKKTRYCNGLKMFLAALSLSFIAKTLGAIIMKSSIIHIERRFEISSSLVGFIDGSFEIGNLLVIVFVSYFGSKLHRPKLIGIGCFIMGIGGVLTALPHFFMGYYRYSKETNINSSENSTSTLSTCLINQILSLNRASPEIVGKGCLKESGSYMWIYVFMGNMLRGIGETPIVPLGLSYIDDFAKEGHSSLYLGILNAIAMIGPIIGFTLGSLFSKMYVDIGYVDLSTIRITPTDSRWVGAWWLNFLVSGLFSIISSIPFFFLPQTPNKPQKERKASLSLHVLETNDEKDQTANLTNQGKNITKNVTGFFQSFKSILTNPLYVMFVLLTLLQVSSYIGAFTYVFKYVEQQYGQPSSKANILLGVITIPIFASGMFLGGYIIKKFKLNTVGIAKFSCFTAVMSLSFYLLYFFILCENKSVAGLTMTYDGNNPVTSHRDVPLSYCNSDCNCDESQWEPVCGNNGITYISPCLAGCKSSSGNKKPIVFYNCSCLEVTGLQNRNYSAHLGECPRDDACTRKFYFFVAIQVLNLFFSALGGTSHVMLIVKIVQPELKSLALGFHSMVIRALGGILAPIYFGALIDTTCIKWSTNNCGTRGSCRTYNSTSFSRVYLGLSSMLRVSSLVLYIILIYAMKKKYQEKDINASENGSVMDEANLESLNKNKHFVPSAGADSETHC", "test": "Transporter substrate", "type": "in vitro ADME"}, "[4]": {"molecular_target": "T1, BCRP (Homo sapiens, UniProt Q9UNQ0)", "T1 sequence (Q9UNQ0 whole entry)": "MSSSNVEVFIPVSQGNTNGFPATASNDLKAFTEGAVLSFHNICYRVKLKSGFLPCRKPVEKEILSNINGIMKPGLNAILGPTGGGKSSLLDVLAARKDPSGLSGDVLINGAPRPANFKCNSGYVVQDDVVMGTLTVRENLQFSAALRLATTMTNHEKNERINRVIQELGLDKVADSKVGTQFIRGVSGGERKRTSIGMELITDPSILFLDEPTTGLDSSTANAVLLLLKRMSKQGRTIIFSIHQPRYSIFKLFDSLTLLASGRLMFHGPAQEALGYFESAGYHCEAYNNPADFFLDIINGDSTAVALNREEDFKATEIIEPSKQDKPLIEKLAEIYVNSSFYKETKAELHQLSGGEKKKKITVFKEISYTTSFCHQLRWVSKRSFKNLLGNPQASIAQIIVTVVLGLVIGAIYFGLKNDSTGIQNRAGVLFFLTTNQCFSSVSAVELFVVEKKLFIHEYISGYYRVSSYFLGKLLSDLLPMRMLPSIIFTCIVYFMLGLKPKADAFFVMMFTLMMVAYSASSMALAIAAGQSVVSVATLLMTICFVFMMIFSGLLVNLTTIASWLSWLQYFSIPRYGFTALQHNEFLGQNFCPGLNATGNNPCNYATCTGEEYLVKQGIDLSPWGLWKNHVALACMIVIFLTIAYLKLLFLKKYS", "test": "Transporter substrate", "type": "in vitro ADME"}, "[5]": {"molecular_target": "OAT3 (Homo sapiens, UniProt Q8TCC7)", "sequence (Q8TCC7 whole entry)": "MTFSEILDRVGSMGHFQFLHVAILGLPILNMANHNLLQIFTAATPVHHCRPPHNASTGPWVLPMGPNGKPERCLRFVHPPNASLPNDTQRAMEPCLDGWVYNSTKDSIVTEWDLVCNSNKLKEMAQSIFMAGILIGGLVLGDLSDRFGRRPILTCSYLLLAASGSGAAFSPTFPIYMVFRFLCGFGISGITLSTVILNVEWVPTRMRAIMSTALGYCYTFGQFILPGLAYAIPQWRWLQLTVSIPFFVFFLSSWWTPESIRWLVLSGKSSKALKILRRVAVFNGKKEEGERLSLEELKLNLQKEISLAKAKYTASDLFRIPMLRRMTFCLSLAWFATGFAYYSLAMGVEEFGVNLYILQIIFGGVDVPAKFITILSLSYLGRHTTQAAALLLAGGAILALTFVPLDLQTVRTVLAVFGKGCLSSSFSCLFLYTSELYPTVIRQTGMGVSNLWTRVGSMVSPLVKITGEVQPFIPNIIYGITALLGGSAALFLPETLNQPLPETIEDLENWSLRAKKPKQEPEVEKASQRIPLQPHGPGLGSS", "test": "Transporter inhibition", "type": "in vitro ADME", "settings": "clinically relevant concentrations"}, "[6]": {"molecular_target": "T1, BCRP", "test": "Transporter inhibition", "type": "in vitro ADME", "settings": "clinically relevant concentrations"}, "[7]": {"test": "Atogepant-quinidine gluconate (P-gp inhibition) drug interaction study: atogepant PK", "type": "in vivo, human", "procedure": "A phase 1, single-center, single-sequence, open-label, 2-intervention, drug-drug interaction study was conducted to evaluate the effects of P-glycoprotein (P-gp) inhibition by quinidine gluconate on pharmacokinetics (PK) and safety of atogepant. In this study, healthy adults received atogepant 60 mg on day 1, quinidine gluconate 324 mg twice daily on Day 8, quinidine gluconate 648 mg twice-daily on days 9-12, and atogepant 60 mg co-administered on day 11. Plasma samples were collected on days 1 and 11.\nAtogepant PK parameters calculated were peak plasma concentration (Cmax); time to Cmax (tmax); and area under plasma concentration—time curve from time 0 to time t (AUC0-t) and infinity (AUC0-∞). PK parameters of atogepant co-administered with quinidine gluconate vs. atogepant administered alone were compared using a mixed-effects model. Statistical significance was achieved if 90% confidence intervals (Cis) for least squares geometric mean ratios (GMRs) of PK parameter values for atogepant co-administered with quinidine gluconate to atogepant administered alone were within 80%-125%. Safety assessments included clinical laboratory values, vital signs, electrocardiograms, and […] adverse events (TEAEs)."}, "[8]": {"molecular_target": "NTCP (Homo sapiens, UniProt Q14973)", "sequence (Q14973 whole entry)": "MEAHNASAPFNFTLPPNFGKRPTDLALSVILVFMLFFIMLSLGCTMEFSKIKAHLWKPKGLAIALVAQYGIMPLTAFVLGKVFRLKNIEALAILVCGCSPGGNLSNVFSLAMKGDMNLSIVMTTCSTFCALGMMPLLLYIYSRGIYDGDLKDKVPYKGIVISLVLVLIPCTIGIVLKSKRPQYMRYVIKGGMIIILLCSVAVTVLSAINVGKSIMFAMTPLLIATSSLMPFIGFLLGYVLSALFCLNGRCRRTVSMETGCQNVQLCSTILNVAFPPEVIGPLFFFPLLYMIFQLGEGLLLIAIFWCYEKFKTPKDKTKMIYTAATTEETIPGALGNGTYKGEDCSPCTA", "test": "Transporter inhibition", "type": "in vitro ADME", "settings": "clinically relevant concentrations"}, "[9]": {"settings": "Treatment A: atogepant 60 mg alone"}, "[10]": {"settings": "Treatment B1 (single-dose rifampin) / Treatment A"}, "[11]": {"settings": "Treatment B2 (multi-dose rifampin) / Treatment A"}, "[12]": {"settings": "Treatment B2: atogepant 60 mg + multiple-dose rifampin 600 mg"}, "[13]": {"settings": "atogepant 60 mg + multiple-dose rifampin 600 mg (strong CYP3A4 inducer) vs atogepant alone"}, "[14]": {"settings": "atogepant 60 mg + single-dose rifampin 600 mg (OATP inhibitor) vs atogepant alone"}, "[15]": {"settings": "both sexes, human, plasma, oral, 60 mg, Treatment A: atogepant 60 mg alone"}, "[16]": {"settings": "both sexes, human, plasma, oral, Treatment B2: atogepant 60 mg + multiple-dose rifampin 600 mg"}, "[17]": {"settings": "co-administered with quinidine gluconate"}}, "note": "Where “and” joins values, the source holds several entries; their conditions need not be identical. Equal values may be shown once. Read-outs that look alike come from different tables or passages of the source.", "data": [{"smiles": "C[C@@H]1[C@H](c2c(F)ccc(F)c2F)C[C@H](NC(=O)c2cnc3c(c2)C[C@@]2(C3)C(=O)Nc3ncccc32)C(=O)N1CC(F)(F)F", "note": "[atogepant, (3′S)-N-[(3S,5S,6R)-6-methyl-2-oxo-1-(2,2,2-trifluoroethyl)-5-(2,3,6-trifluorophenyl)piperidin-3-yl]-2′-oxo-1′,2′,5,7-tetrahydrospiro[cyclopenta[b]pyridine-6,3′-pyrrolo[2,3-b]pyridine]-3-carboxamide]", "values": [{"measurement": "CL/F", "setting": "[1]; [9]", "value": 22.8, "unit": "L/h"}, {"measurement": "λz", "setting": "[1]; [9]", "value": 0.0778, "unit": "h⁻¹"}, {"measurement": "AUC0-24 Ratio of Geometric Means Test/Ref", "setting": "[1]; [10]", "value": 284.84, "unit": "%"}, {"measurement": "Cmax Ratio of Geometric Means Test/Ref", "setting": "[1]; [10]", "value": 222.65, "unit": "%"}, {"measurement": "AUC0-t Ratio of Geometric Means Test/Ref", "setting": "[1]; [11]", "value": 40.46, "unit": "%"}, {"measurement": "AUC0-∞ Ratio of Geometric Means Test/Ref", "setting": "[1]; [11]", "value": 38.85, "unit": "%"}, {"measurement": "Cmax Ratio of Geometric Means Test/Ref", "setting": "[1]; [11]", "value": 70.06, "unit": "%"}, {"measurement": "CL/F", "setting": "[1]; [12]", "value": "58.3 L/h and 58.3^b L/h"}, {"measurement": "λz", "setting": "[1]; [12]", "value": "0.325^b 1/h"}, {"measurement": "reduction of atogepant AUC0-t (AUC)", "setting": "[1]; [13]", "value": 60, "unit": "%"}, {"measurement": "reduction of atogepant Cmax", "setting": "[1]; [13]", "value": 30, "unit": "%"}, {"measurement": "reduction of atogepant AUC0-∞", "setting": "[1]; atogepant 60 mg + multiple-dose rifampin 600 mg vs atogepant alone", "value": 61, "unit": "%"}, {"measurement": "increase in atogepant AUC0-24", "setting": "[1]; [14]", "value": 2.85, "unit": "fold"}, {"measurement": "increase in atogepant Cmax", "setting": "[1]; [14]", "value": 2.23, "unit": "fold"}, {"measurement": "half-life", "setting": "[1]; [15]", "value": 11.4, "unit": "h"}, {"measurement": "AUC(0-t)", "setting": "[1]; both sexes, human, plasma, oral, 60 mg, Treatment A: atogepant 60 mg alone, read-out: AUC0-24", "value": 2870, "unit": "ng·h/mL"}, {"measurement": "AUC(0-t)", "setting": "[1]; both sexes, human, plasma, oral, 60 mg, Treatment A: atogepant 60 mg alone, read-out: AUC0-24 Geometric LSM, Reference", "value": 2680, "unit": "ng·h/mL"}, {"measurement": "AUC(0-t)", "setting": "[1]; both sexes, human, plasma, oral, 60 mg, Treatment A: atogepant 60 mg alone, read-out: AUC0-t", "value": 2960, "unit": "ng·h/mL"}, {"measurement": "AUC(0-t)", "setting": "[1]; both sexes, human, plasma, oral, 60 mg, Treatment A: atogepant 60 mg alone, read-out: AUC0-t Geometric LSM, Reference", "value": 2770, "unit": "ng·h/mL"}, {"measurement": "AUC(0-inf)", "setting": "[1]; both sexes, human, plasma, oral, 60 mg, Treatment A: atogepant 60 mg alone, read-out: AUC0-∞", "value": 3000, "unit": "ng·h/mL"}, {"measurement": "AUC(0-inf)", "setting": "[1]; both sexes, human, plasma, oral, 60 mg, Treatment A: atogepant 60 mg alone, read-out: AUC0-∞ Geometric LSM, Reference", "value": 2810, "unit": "ng·h/mL"}, {"measurement": "Cmax", "setting": "[1]; both sexes, human, plasma, oral, 60 mg, Treatment A: atogepant 60 mg alone, read-out: Cmax", "value": 711, "unit": "ng/mL"}, {"measurement": "Cmax", "setting": "[1]; both sexes, human, plasma, oral, 60 mg, Treatment A: atogepant 60 mg alone, read-out: Cmax Geometric LSM, Reference", "value": 649, "unit": "ng/mL"}, {"measurement": "Tmax", "setting": "[1]; [15]", "value": 1.5, "unit": "h"}, {"measurement": "AUC(0-t)", "setting": "[1]; both sexes, human, plasma, oral, Treatment B1: atogepant 60 mg + single-dose rifampin 600 mg, read-out: AUC0-24", "value": 8130, "unit": "ng·h/mL"}, {"measurement": "AUC(0-t)", "setting": "[1]; both sexes, human, plasma, oral, Treatment B1: atogepant 60 mg + single-dose rifampin 600 mg, read-out: AUC0-24 Geometric LSM, Test", "value": 7630, "unit": "ng·h/mL"}, {"measurement": "Cmax", "setting": "[1]; both sexes, human, plasma, oral, Treatment B1: atogepant 60 mg + single-dose rifampin 600 mg, read-out: Cmax", "value": 1550, "unit": "ng/mL"}, {"measurement": "Cmax", "setting": "[1]; both sexes, human, plasma, oral, Treatment B1: atogepant 60 mg + single-dose rifampin 600 mg, read-out: Cmax Geometric LSM, Test", "value": 1440, "unit": "ng/mL"}, {"measurement": "Tmax", "setting": "[1]; both sexes, human, plasma, oral, Treatment B1: atogepant 60 mg + single-dose rifampin 600 mg", "value": 2, "unit": "h"}, {"measurement": "half-life", "setting": "[1]; [16]", "value": 2.39, "unit": "h"}, {"measurement": "AUC(0-t)", "setting": "[1]; both sexes, human, plasma, oral, Treatment B2: atogepant 60 mg + multiple-dose rifampin 600 mg, read-out: AUC0-t", "value": 1180, "unit": "ng·h/mL"}, {"measurement": "AUC(0-t)", "setting": "[1]; both sexes, human, plasma, oral, Treatment B2: atogepant 60 mg + multiple-dose rifampin 600 mg, read-out: AUC0-t Geometric LSM, Test", "value": 1120, "unit": "ng·h/mL"}, {"measurement": "AUC(0-inf)", "setting": "[1]; both sexes, human, plasma, oral, Treatment B2: atogepant 60 mg + multiple-dose rifampin 600 mg, read-out: AUC0-∞", "value": 1130, "unit": "ng·h/mL"}, {"measurement": "AUC(0-inf)", "setting": "[1]; both sexes, human, plasma, oral, Treatment B2: atogepant 60 mg + multiple-dose rifampin 600 mg, read-out: AUC0-∞ Geometric LSM, Test", "value": 1090, "unit": "ng·h/mL"}, {"measurement": "Cmax", "setting": "[1]; both sexes, human, plasma, oral, Treatment B2: atogepant 60 mg + multiple-dose rifampin 600 mg, read-out: Cmax", "value": 487, "unit": "ng/mL"}, {"measurement": "Cmax", "setting": "[1]; both sexes, human, plasma, oral, Treatment B2: atogepant 60 mg + multiple-dose rifampin 600 mg, read-out: Cmax Geometric LSM, Test", "value": 454, "unit": "ng/mL"}, {"measurement": "Tmax", "setting": "[1]; [16]", "value": 1.5, "unit": "h"}, {"measurement": "Vd/F", "setting": "[1]; [16]", "value": 197, "unit": "L"}, {"measurement": "reduction in mean apparent half-life", "setting": "[1]; both sexes, human, plasma, oral, atogepant + multiple dose rifampin vs atogepant alone, read-out: reduction of mean apparent T1/2 (converted)", "value": "~9", "unit": "h"}, {"measurement": "Vd/F", "setting": "[1]; both sexes, human, plasma, oral, Treatment A: atogepant 60 mg alone", "value": 390, "unit": "L"}, {"measurement": "inhibition of MATE 1", "setting": "[2]", "value": "weak inhibitor"}, {"measurement": "substrate of OATP1B1", "setting": "[3]", "value": "substrate"}, {"measurement": "substrate of BCRP", "setting": "[4]", "value": "substrate"}, {"measurement": "inhibition of OAT3", "setting": "[5]", "value": "not an inhibitor"}, {"measurement": "inhibition of BCRP", "setting": "[6]", "value": "not an inhibitor"}, {"measurement": "AUC increase", "setting": "[7]; [17]", "value": "approximately 25%"}, {"measurement": "Cmax increase", "setting": "[7]; [17]", "value": 4.4, "unit": "%"}, {"measurement": "Tmax", "setting": "[7]; human, plasma, with or without quinidine gluconate, read-out: atogepant median tmax", "value": 1.5, "unit": "h"}, {"measurement": "inhibition of NTCP", "setting": "[8]", "value": "not an inhibitor"}]}]}
